From PubChem BioAssay AID248 (DTP/NCI, 2004)
Several values for one entry are separate records, joined by “and”; a condition that tells them apart may be missing. Identical values can stand only once. Toxic doses and inconclusive results are not listed. Cut-off read from the data, not from the text of the source: active = T/C of 150% or more; inactive = T/C below 125%.

System: L1210 leukemia ip in BDF1 mice, survival T/C
Assay: NCI In Vivo Anticancer Drug Screen. Data for tumor model L1210 Leukemia (intraperitoneal) in B6D2F1 (BDF1) mice
Conditions: endpoint: mean survival time, higher = longer survival
Outline: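 Read-out is survival time, reported as the treated-group measurement over the vehicle-control measurement.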

[1] = dose: 50.0 mg/kg/injection, schedule: Q04DX003 (ip), vehicle: saline
[2] = dose: 100.0 mg/kg/injection, schedule: Q01DX001 (ip), vehicle: saline
[3] = dose: 100.0 mg/kg/injection, schedule: Q01DX009 (ip), vehicle: saline
[4] = dose: 100.0 mg/kg/injection, schedule: Q04DX003 (ip), vehicle: saline
[5] = dose: 200.0 mg/kg/injection, schedule: Q01DX001 (ip), vehicle: saline
[6] = dose: 200.0 mg/kg/injection, schedule: Q01DX009 (ip), vehicle: saline
[7] = dose: 200.0 mg/kg/injection, schedule: Q04DX003 (ip), vehicle: saline
[8] = dose: 400.0 mg/kg/injection, schedule: Q01DX001 (ip), vehicle: saline
[9] = dose: 100.0 mg/kg/injection, schedule: Q01DX009 (ip), vehicle: saline with Tween-80
[10] = dose: 200.0 mg/kg/injection, schedule: Q01DX009 (ip), vehicle: saline with Tween-80
[11] = dose: 50.0 mg/kg/injection, schedule: Q01DX001 (ip), vehicle: carboxymethylcellulose (CMC)
[12] = dose: 100.0 mg/kg/injection, schedule: Q04DX002 (ip), vehicle: Klucel (hydroxypropylcellulose) (HPC)
[13] = dose: 200.0 mg/kg/injection, schedule: Q04DX002 (ip), vehicle: Klucel (hydroxypropylcellulose) (HPC)
[14] = dose: 400.0 mg/kg/injection, schedule: Q04DX002 (ip), vehicle: Klucel (hydroxypropylcellulose) (HPC)

Measured: T/C

[Cl][Al]([Cl])[Cl]
inactive: dose: 6.25 mg/kg/injection, schedule: Q01DX009 (ip), vehicle: saline 102 % of control | dose: 12.5 mg/kg/injection, schedule: Q01DX009 (ip), vehicle: saline 93 % of control | [1] 91 % of control | [2] 97 % of control and 89 % of control and 96 % of control | [3] 87 % of control | [4] 100 % of control and 87 % of control | [5] 98 % of control and 94 % of control | [6] 96 % of control | [7] 96 % of control and 101 % of control and 90 % of control | [8] 100 % of control and 114 % of control | dose: 400.0 mg/kg/injection, schedule: Q01DX009 (ip), vehicle: saline 91 % of control

Cn1cnc2c([N+](C)(C)C)ncnc21
inactive: dose: 11.0 mg/kg/injection, schedule: Q04DX003 (ip), vehicle: saline 100 % of control | dose: 22.0 mg/kg/injection, schedule: Q04DX003 (ip), vehicle: saline 104 % of control | dose: 44.0 mg/kg/injection, schedule: Q04DX003 (ip), vehicle: saline 98 % of control | dose: 90.0 mg/kg/injection, schedule: Q04DX003 (ip), vehicle: saline 100 % of control | [4] 95 % of control and 101 % of control | [7] 104 % of control

CC(C)(C)c1ccc(O)c(C(C)(C)C)c1
inactive: dose: 50.0 mg/kg/injection, schedule: Q01DX009 (ip), vehicle: saline with Tween-80 100 % of control | [9] 96 % of control | dose: 100.0 mg/kg/injection, schedule: Q04DX003 (ip), vehicle: saline with Tween-80 91 % of control | [10] 97 % of control | dose: 200.0 mg/kg/injection, schedule: Q04DX003 (ip), vehicle: saline with Tween-80 95 % of control

N#CCSc1ncnc2nc[nH]c12
inactive: dose: 15.0 mg/kg/injection, schedule: Q01DX010 (ip), vehicle: saline 94 % of control and 116 % of control | dose: 30.0 mg/kg/injection, schedule: Q01DX010 (ip), vehicle: saline 97 % of control and 110 % of control | [11] 107 % of control | dose: 60.0 mg/kg/injection, schedule: Q01DX010 (ip), vehicle: saline 118 % of control and 121 % of control | dose: 62.5 mg/kg/injection, schedule: Q01DX Z (ip), vehicle: carboxymethylcellulose (CMC) 109 % of control | dose: 76.0 mg/kg/injection, schedule: Q01DX001 (ip), vehicle: carboxymethylcellulose (CMC) 110 % of control | dose: 114.0 mg/kg/injection, schedule: Q01DX001 (ip), vehicle: carboxymethylcellulose (CMC) 107 % of control | dose: 171.0 mg/kg/injection, schedule: Q01DX001 (ip), vehicle: carboxymethylcellulose (CMC) 113 % of control | dose: 256.5 mg/kg/injection, schedule: Q01DX001 (ip), vehicle: carboxymethylcellulose (CMC) 123 % of control

NCC1CCNCC1
inactive: dose: 25.0 mg/kg/injection, schedule: Q04DX002 (ip), vehicle: saline 103 % of control | dose: 50.0 mg/kg/injection, schedule: Q04DX002 (ip), vehicle: saline 97 % of control and 100 % of control | dose: 100.0 mg/kg/injection, schedule: Q04DX002 (ip), vehicle: saline 103 % of control and 106 % of control | dose: 200.0 mg/kg/injection, schedule: Q04DX002 (ip), vehicle: saline 102 % of control and 90 % of control | dose: 400.0 mg/kg/injection, schedule: Q04DX002 (ip), vehicle: saline 97 % of control

Cc1cn(C2CC(CO)CC2O)c(=O)[nH]c1=O (stereo not drawn)
inactive: dose: 50.0 mg/kg/injection, schedule: Q01DX009 (ip), vehicle: saline 104 % of control | [3] 107 % of control | [6] 107 % of control

CCCCCCCCCCCC(=O)NC(=S)Nc1cccc(Cl)c1
inactive: dose: 100.0 mg/kg/injection, schedule: Q01DX001 (ip), vehicle: saline with Tween-80 93 % of control | [9] 107 % of control and 89 % of control | dose: 100.0 mg/kg/injection, schedule: Q04DX002 (ip), vehicle: saline with Tween-80 122 % of control and 91 % of control | dose: 200.0 mg/kg/injection, schedule: Q01DX001 (ip), vehicle: saline with Tween-80 93 % of control | [10] 96 % of control and 86 % of control | dose: 200.0 mg/kg/injection, schedule: Q04DX002 (ip), vehicle: saline with Tween-80 97 % of control and 119 % of control | dose: 400.0 mg/kg/injection, schedule: Q01DX001 (ip), vehicle: saline with Tween-80 90 % of control | dose: 400.0 mg/kg/injection, schedule: Q04DX002 (ip), vehicle: saline with Tween-80 105 % of control and 92 % of control

CC(=O)[O][Hg][CH]1CCC2OC1CC[CH]2[Hg][O]C(C)=O (stereo not drawn)
inactive: dose: 12.5 mg/kg/injection, schedule: Q01DX009 (ip), vehicle: Klucel (hydroxypropylcellulose) (HPC) 97 % of control | dose: 25.0 mg/kg/injection, schedule: Q01DX009 (ip), vehicle: Klucel (hydroxypropylcellulose) (HPC) 94 % of control | dose: 25.0 mg/kg/injection, schedule: Q04DX003 (ip), vehicle: Klucel (hydroxypropylcellulose) (HPC) 91 % of control | dose: 50.0 mg/kg/injection, schedule: Q01DX009 (ip), vehicle: Klucel (hydroxypropylcellulose) (HPC) 96 % of control | dose: 50.0 mg/kg/injection, schedule: Q04DX003 (ip), vehicle: Klucel (hydroxypropylcellulose) (HPC) 98 % of control

Cc1ccccc1NC(=O)Oc1ccc(C2CCCCC2)cc1
inactive: [12] 103 % of control | [13] 91 % of control | [14] 100 % of control

CCCCCCCCCCNC(=O)C[n+]1cccc(C(N)=O)c1
inactive: dose: 12.5 mg/kg/injection, schedule: Q04DX003 (ip), vehicle: saline 86 % of control | dose: 25.0 mg/kg/injection, schedule: Q04DX003 (ip), vehicle: saline 89 % of control | [1] 102 % of control

O=C1CCCC(=O)NNC(=O)Nc2ccc(cc2)-c2ccc(cc2)NC(=O)NN1
inactive: dose: 50.0 mg/kg/injection, schedule: Q01DX001 (ip), vehicle: saline 104 % of control | [2] 104 % of control | [8] 96 % of control

N#C/C(=N\N=Nc1ccccc1)c1cccc2ccccc12
inactive: dose: 100.0 mg/kg/injection, schedule: Q01DX009 (ip), vehicle: gum acacia 94 % of control | dose: 200.0 mg/kg/injection, schedule: Q01DX009 (ip), vehicle: gum acacia 91 % of control

Cc1cc(=O)n(Cc2ccccc2)c(O)c1C
inactive: dose: 100.0 mg/kg/injection, schedule: Q01DX009 (ip), vehicle: Klucel (hydroxypropylcellulose) (HPC) 95 % of control | dose: 100.0 mg/kg/injection, schedule: Q04DX003 (ip), vehicle: Klucel (hydroxypropylcellulose) (HPC) 94 % of control | dose: 200.0 mg/kg/injection, schedule: Q01DX009 (ip), vehicle: Klucel (hydroxypropylcellulose) (HPC) 91 % of control | dose: 200.0 mg/kg/injection, schedule: Q04DX003 (ip), vehicle: Klucel (hydroxypropylcellulose) (HPC) 94 % of control | dose: 400.0 mg/kg/injection, schedule: Q01DX009 (ip), vehicle: Klucel (hydroxypropylcellulose) (HPC) 93 % of control | dose: 400.0 mg/kg/injection, schedule: Q04DX003 (ip), vehicle: Klucel (hydroxypropylcellulose) (HPC) 98 % of control

O=[N+]([O-])c1ccc(O)c2ncccc12
inactive: dose: 25.0 mg/kg/injection, schedule: Q04DX002 (ip), vehicle: Klucel (hydroxypropylcellulose) (HPC) 102 % of control | [11] 101 % of control | dose: 50.0 mg/kg/injection, schedule: Q01DX015 (ip), vehicle: saline 97 % of control | dose: 50.0 mg/kg/injection, schedule: Q04DX002 (ip), vehicle: Klucel (hydroxypropylcellulose) (HPC) 94 % of control and 102 % of control | dose: 100.0 mg/kg/injection, schedule: Q01DX001 (ip), vehicle: carboxymethylcellulose (CMC) 109 % of control | dose: 100.0 mg/kg/injection, schedule: Q01DX015 (ip), vehicle: saline 93 % of control | [12] 94 % of control (2×) and 95 % of control | dose: 200.0 mg/kg/injection, schedule: Q01DX001 (ip), vehicle: carboxymethylcellulose (CMC) 95 % of control | dose: 200.0 mg/kg/injection, schedule: Q01DX015 (ip), vehicle: saline 95 % of control | [13] 110 % of control | dose: 400.0 mg/kg/injection, schedule: Q01DX015 (ip), vehicle: saline 91 % of control | [14] 91 % of control

O=C(O)C1C2C3CC(C4CC43)C12 (stereo not drawn)
inactive: [9] 96 % of control | [4] 96 % of control | [10] 106 % of control | [7] 93 % of control | dose: 400.0 mg/kg/injection, schedule: Q01DX009 (ip), vehicle: saline with Tween-80 96 % of control | dose: 400.0 mg/kg/injection, schedule: Q04DX003 (ip), vehicle: saline 100 % of control

Cn1nnc(CCO)n1
inactive: [2] 95 % of control | [5] 95 % of control | [8] 100 % of control

Nc1ncnc2c1ncn2C1COC(CO)C1O (stereo not drawn)
inactive: [2] 103 % of control | [5] 107 % of control | [8] 107 % of control
